Results from patent US10226465B2, “Composition for use in increasing engraftment efficacy of haematopoetic stem cells after transplantation” (priority 2015, dated 2019).
pKd: −log10 of the molar value.

Key:
[1] = test system: lethally irradiated recipient C57Bl/6 (CD45.2+) mice; test: Homing assay (CD45.1+ donor cells in bone marrow of CD45.2+ recipients, FACS, Example 6); type: in vivo
Description: The lineage-negative HSPCs were isolated from whole bone marrow cells of donor mice B6.SJL-PtrcAPep3B/Boyl (CD45.1+) using MACS micro beads (see above). The cells were in vitro treated with 10 μM Treprostinil and 30 μM forskolin or vehicle control for 1 h at 37° C. After washing, 0.2×10^6 lineage-negative CD 45.1^+ cells were injected in to the lethally irradiated (10 Gy) recipient C57Bl/6 (CD45.2^+) mice. Recipient mice were also treated in vivo with either Treprostinil (0.15 mg kg 8 h^−1), vildagliptin (10 mg kg^−1) or with the combination of both drugs subcutaneously. Control mice were injected with the same volume of vehicle. The whole bone marrow cells were isolated from recipient mice 16 h after transplantation. After lysis of red blood cells, the cells were stained for CD45.1 and CD45.2 markers. The proportion of CD45.1^+ and CD45.2^+ cells in the bone marrow was determined by flow cytometry.
Given that DPP-IV inhibitors may be a suitable combination partner for Treprostinil, we explored whether the DPP-IV inhibitor vildagliptin enhanced the action of Treprostinil. This was first tested in an approach, which measured the ability of injected HSPCs to home into the bone marrow: HSPCs harvested from the bone marrow of CD 45.1+ donor mice were injected into isogenic CD45.2 recipients. The animals were sacrificed after 16 h and the amount of CD45.1+ cells, which were retrieved from their bone marrows was quantified by FACS.
The recipient mice were then divided in 7 groups. […] Mice allocated to group 3 received only in vitro-treated cells, those in group 4 were subjected—in addition—to in vivo Treprostinil (Trep, 0.15 mg kg^−1 8 h^−1). Mice assigned to group 5 were administered a combined in vivo treatment with Treprostinil (0.15 mg kg−1 8 h−1) and AMD3100 (3.3 mg kg^−1 8 h^−1). Mice in group 5 received in vivo both Treprostinil (0.15 mg kg^−1 8 h^−1) and vildagliptin (10 mg kg^−1/d), and finally mice in group 6 were subjected to in vivo vildagliptin. The ability of CD45.1+cells to home into the bone marrow was assessed after 16 h by analysing the bone marrow of the recipients by FACS. Data are as means±SEM (n=3). Statistical comparisons were done by ANOVA followed by Tukey's multiple comparison.

[2] = test system: lethally irradiated recipient BALB/c mice; test: In vivo engraftment assay (survival, Example 5); details: 0.2×10^6 pretreated cells, 10/group
Description: Haematopoetic progenitor cells isolated from bone marrow of donor mice (BALB/c) as outlined in the legend to FIG. 4. The cells were treated in vitro with 10 μM Treprostinil and 30 μM forskolin or vehicle for 1 h at 37° C. After washing, 0.2×10^6 lineage-negative haematopoetic progenitor cells were injected via the tail vein into lethally irradiated (9 Gy) recipient BALB/c mice (10/group). If not pretreated in vitro with the combination of Treprostinil and forskolin, this number of haematopoetic progenitor cells is too low to rescue the recipient animals. Accordingly, the group of mice, which received cells that had not been pretreated, died within the first week (black line, CTRL). The limiting number of haematopoetic stem cells sufficed to rescue 50% of the mice, which had received pretreated cells and were then treated with Treprostinil (3 μg/8 h s.c. for 10 days; red curve labeled in vitro pretreated cells+in vivo treatment of recipient mice with Treprostinil). […] In contrast, mice, which received the combination of Treprostinil (3 μg/8 h) and vildagliptin (10 mg/kg/24 h) had the worst outcome of all recipient mice that had received pretreated cells: only 2 out of ten mice survived (grey line labeled in vitro pretreated cells+in vivo treatment of recipient mice with the combination of Treprostinil and vildagliptin). […]

[3] = test system: lethally irradiated recipient BALB/c mice; test: Bone marrow transplantation (survival of recipient mice, Example 6); type: in vivo
Description: These were subsequently divided in two groups. Mice allocated to group 1 (n=10) were further subjected to in vivo treatment with Treprostinil (0.15 mg kg^−1 8 h^−1) whereas mice in group 2 (n=10) received both Treprostinil (0.15 mg kg^−1 8 h^−1) and AMD3100 (3.3 mg kg^−1 8 h^−1) by subcutaneous injection every 8 h for 10 days.
Isogenic recipient mice (C57BL/6 or BALB/c) were subjected to lethal irradiation. […] Lin^− (Sca1^+ and c-Kit^+) HSPCs cells were prepared as outlined above and were pretreated ex vivo in the absence and presence of the combination of 10 μM Treprostinil+30 μM forskolin (FSK) for 1 h at 37° C. Thereafter, the cells (1-5*10^5/mouse) were injected via the tail vein. White blood cell counts were determined by FACS, blood samples were collected every 3 to 5 days starting on day 9 (where blood cell count was ˜1 G/L. In some instances, mice (25-30 g) were also treated with (i) Treprostinil (0.15 mg kg 8 h^−1) and vildagliptin (10 mg kg−^1 12 h^−1) or with the combination of both administered subcutaneously every 8 h for 10 days.
If this was the case, the action of vildagliptin ought to be blunted by simultaneous administration of AMD3100/plerixafor. An experiment was done with seven groups of recipient BALB/c mice (5/group). Several of these groups were internal controls, which were included to verify that earlier findings were recapitulated. […] It is stressed that all conditions were tested in parallel, thus a comparison is legitimate.
Murine HPSCs isolated from donor BALB/c mice were treated in vitro with 10 μM Treprostinil and 30 μM forskolin or vehicle (solid line) for 1 h at 37° C. After washing, 2×10^5 cells were injected into lethally irradiated (10 Gy) recipient BALB/c mice. […] Another group of mice (dotted lines/triangles; n=20) received HSPCs pretreated with 10 μM Treprostinil and 30 μM forskolin, and were also treated in vivo with Treprostinil (0.15 mg kg−1 8 h−1). The next group of mice (dotted lines/squares; n=20) again received in vitro HSPCs pretreated with forskolin+Treprostinil and were further treated in vivo with both Treprostinil (0.15 mg kg^−1 8 h^−1) and vildagliptin (10 mg/kg/24 h). Finally, a group of mice (dashed lines/circles; n=20) received in vitro HSPCs pretreated with forskolin+Treprostinil and were treated in vivo with vildagliptin (10 mg kg−1 per day). In vivo treatment was done by subcutaneous injections, it was initiated directly after transplantation and continued for 10 days.

[4] = test system: lethally irradiated recipient BALB/c mice; test: In vivo homing assay (colony formation from recipient bone marrow, Example 4)
[5] = test system: murine haematopoetic progenitor cells; test: In vitro migration assay (Transwell, towards SDF-1/CXCL12), murine cells; type: cell-based; details: 100 ng/ml murine SDF-1, 4 h; for SDF-1/CXCL12-induced migration of Treprostinil+forskolin-stimulated cells: 10 μM AMD3100
Description: Murine haematopoetic progenitor cells were pretreated in vitro with the combination of 10 μM Treprostinil (Trep) and 30 μM forskolin (Fsk) (Sigma Aldrich, Vienna, Austria) or vehicle for 1 h at 37° C. in growth factor containing stem cell medium [(StemSpan™ (SFEM) (Stemcell technologies, USA) (50 ng/mL murine stem cell factor (SCF), 50 ng/mL fms-like tyrosine kinase-3 ligand (Flt3), 50 ng/mL interleukin 11 (IL11) and 150 ng/mL murine interleukin 3 (mIL3)] purchased from PeproTech (London, United Kingdom)). Thereafter cells were washed and resuspended at 2×10^6 cells/mL in medium.
The cell suspension (0.1 mL containing 2×10^5 cells) was added to the upper chamber of Transwell™ dishes (5 μm pore diameter). The bottom chamber was followed with medium or medium containing 100 ng/ml murine stromal derived factor-1 (SDF-1=CXCL12). Cells were allowed to migrate for 4 h at 37° C. Subsequently, the number of cells recovered from the lower chamber was determined by a cell counter. The number of migrated cells was expressed as percentage of total cells added to the upper chamber.
Hematopoietic stem and progenitor cells were preincubated with Treprostinil (10 μM; T) and forskolin (30 μM; F) for 1 h at 37° C., washed and resuspended at a cell density of 2×10^6 cells/mL. The cell suspension (2×10^5 cells in 0.1 mL) was added to the upper chamber the Transwell™ dish, which contained medium with and without 10 ΞM CXCR4 antagonist AMD3100 (10 μM). The medium in the lower chamber contained 100 ng/ml murine SDF-1. The incubation lasted for 4 h at 37° C.; thereafter cells recovered in the lower chamber were counted as outlined in the legend to FIG. 1. Data shown are means±SEM from three independent experiments carried out in triplicate. Statistically significant differences were assessed by one way ANOVA followed by Dunnett's multiple comparisons (***, p<0.001).

[6] = test system: human haematopoetic CD34+ stem and progenitor cells; test: [3H]cAMP accumulation assay; type: cell-based; details: for cAMP response after pertussis toxin pretreatment: pertussis toxin 16 h, + 30 μM forskolin
Description: Human haematopoetic CD34+ stem and progenitor cells (HSPCs, 4*10^5/mL) were first preincubated for 16 h in the absence presence of 100 ng/ml pertussis toxin (Sigma Aldrich) in X-VIVO15 medium supplemented with growth factors followed by metabolic labelling of the adenine nucleotide pool by an additional 4 h incubation period in [^3H]adenine (Perkin Elmer, 1 μCi/mL) in the X-VIVO15 medium supplemented with growth factors and 10 μg/mL adenosine deaminase (Roche). Thereafter, the cells were challenged with 1 or 10 μM Treprostinil, 1 or 10 μM dimethyl-PGE2 (dmPGE2), forskolin (30 μM) or the combination of forskolin and prostanoids for 30 min. The cells were then pelleted (5 min at 100 g), the medium was removed and the pellet was lysed in ice-cold 2.5% perchloric acid (0.9 mL) containing 0.1 mM cAMP, held on ice for 1 h and neutralized with 4.2 M KOH (0.1 mL). ATP and cAMP were separated by sequential chromatography on columns containing Dowex AG50-X8 and neutral alumina (3).
After metabolic labelling with [3H]adenine, human HSPCs were stimulated with Treprostinil (Trep, 10 μM), dmPGE2 (10 μM) or forskolin (Fsk, 30 μM), the combination of Treprostinil (10 μM) or of dmPGE2 (10 μM) with forskolin (30 μM) as outlined under Materials and Methods. Where indicated HSPCs had been pretreated with pertussis toxin (PTX) for 16 h prior to stimulation. Data are from three independent experiments carried out in triplicate, error bars indicate s.e.m. […] This difference was abolished by pertussis toxin pretreatment (ns, not significant).

EP2 receptors = EP2 receptors (Homo sapiens, UniProt P43116); details: read-out: Kd for activation of isolated EP2 receptors; cited from earlier work
EP2 receptors, sequence (P43116 whole entry): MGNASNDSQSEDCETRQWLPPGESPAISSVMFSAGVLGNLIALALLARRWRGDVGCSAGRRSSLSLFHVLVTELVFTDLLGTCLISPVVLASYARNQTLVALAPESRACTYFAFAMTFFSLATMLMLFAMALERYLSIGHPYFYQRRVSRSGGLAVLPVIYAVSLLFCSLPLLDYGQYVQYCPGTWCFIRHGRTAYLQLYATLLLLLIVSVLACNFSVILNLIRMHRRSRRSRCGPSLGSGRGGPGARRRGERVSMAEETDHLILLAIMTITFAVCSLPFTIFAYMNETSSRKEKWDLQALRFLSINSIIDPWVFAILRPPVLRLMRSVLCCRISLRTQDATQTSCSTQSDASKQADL

[7] = Treprostinil+forskolin-pretreated HSPCs, recipients given one drug in vivo (Treprostinil 0.15 mg kg-1 8 h-1 or vildagliptin 10 mg kg-1/d), 16 h
[8] = pretreated HSPCs, recipients given Treprostinil in vivo plus the named drug (AMD3100 3.3 mg kg-1 8 h-1 or vildagliptin 10 mg kg-1/d)
[9] = 2*10^5 Treprostinil+forskolin-pretreated HSPCs, in vivo s.c. for 10 days (Treprostinil 0.15 mg kg-1 8 h-1 or vildagliptin 10 mg kg-1 per day), n=20
[10] = seven groups, 5/group, all received 2*10^5 Treprostinil+forskolin-pretreated HSPCs, in vivo treatment as named
[11] = Treprostinil+forskolin-treated cells, recipients treated in vivo (Treprostinil 3 μg/8 h, vildagliptin 10 mg/kg/24 h)
[12] = untreated cells, recipients treated in vivo (Treprostinil 3 μg/8 h, vildagliptin 10 mg/kg/24 h) from 24 h before transplantation

Structure (SMILES) | homing of CD45.1+ cells into bone marrow [1, 7] | homing of CD45.1+ cells into bone marrow [1, 8] | survival of recipient mice [3, 9] [%] | survival of recipient mice [3, 10] | homing into bone marrow (colonies) [4, 11] | homing into bone marrow (colonies) [4, 12] | cAMP response after pertussis toxin pretreatment [6] | other results
N#C[C@@H]1CCCN1C(=O)CNC12CC3CC(CC(O)(C3)C1)C2 [vildagliptin] | most pronounced increase in homing | abrigated the homing effect of Treprostinil | 100 | fared best | promoted homing | did not promote homing | – | homing of CD45.1+ cells into bone marrow ([1]; untreated HSPCs, recipients given vildagliptin 10 mg kg-1/d in vivo): did not enhance homing; mice survived ([2]; in vivo s.c. for 10 days (vildagliptin 10 mg/24 h; combination Treprostinil 3 μg/8 h + vildagliptin 10 mg/kg/24 h)): 10 out of 10; SDF-1/CXCL12-induced migration of Treprostinil+forskolin-preincubated cells ([5]; 30 nM vildagliptin): enhances the SDF-1/CXCL12-induced migration
CCCCC(C)(C)[C@H](O)/C=C/[C@H]1[C@H](O)CC(=O)[C@@H]1C/C=C\CCCC(=O)O [dmPGE2, 16,16-dimethyl PGE2] | – | – | – | – | – | – | increased the response to dmPGE2 | pKd (EP2 receptors): ~9.00
c1cc(CN2CCCNCCNCCCNCC2)ccc1CN1CCCNCCNCCCNCC1 [AMD3100] | – | abolished | – | Enhances Survival | – | – | – | survival of recipient mice ([3]; pretreated HSPCs, AMD3100 3.3 mg kg-1 8 h-1 concomitant with Treprostinil 0.15 mg kg-1 8 h-1 s.c. 10 days, n=10): all recipient mice eventually succumbed to bone marrow failure; SDF-1/CXCL12-induced migration of Treprostinil+forskolin-stimulated cells [5]: inhibits the SDF-1/CXCL12-induced migration; SDF-1/CXCL12-induced migration of Treprostinil+forskolin-stimulated cells ([5]; listed as plerixafor/AMD3100): blocked
CCCCC[C@H](O)CC[C@@H]1[C@H]2Cc3cccc(OCC(=O)[O-])c3C[C@H]2C[C@H]1O.[Na+] [Treprostinil, (1R,2R,3aS,9aS)-[[2,3,3a,4,9,9a-hexahydro-2-hydroxy-1-[(3S)-3-hydroxyoctyl]-1H-benz[f]inden-5-yl]oxy]acetic acid monosodium salt] | increased their homing into the bone marrow | – | 60 | – | promoted homing | did not promote homing | no significant difference | cAMP in haematopoetic progenitor cells [6]: stimulates cAMP; cAMP accumulation, efficacy compared ([6]; 10 μM, in the presence of 30 μM forskolin, 30 min): more efficacious than 10 μM dmPGE2; cAMP accumulation, efficacy compared ([6]; absence or presence of 30 μM forskolin): significantly more efficacious than dmPGE2; span of concentration-response curve (cAMP) ([6]; human haematopoetic stem and progenitor cells): more than two orders of magnitude between 10 and 90% of the response; mice rescued ([2]; in vivo Treprostinil 3 μg/8 h s.c. for 10 days): 50%; shape of in vivo dose-response-curve for bone marrow engraftment ([3]; noted previously, higher doses less beneficial than standard dose): bell-shaped
